Data reported in patent EP4563146A1 (IRBM S.P.A., priority 2023, dated 2025).
Like-named read-outs stand apart in the source and are kept apart here.

Assays:
ZIKV replicon = test: ZIKV replication inhibition assay (NanoLuc replicon in Vero cells); details: 72 h
[1] = biological target: T1, West Nile Virus (WNV) NS2B-NS3 protease (West Nile virus, UniProt Q9Q6P4); test: WNV protease inhibition assay; format: biochemical; details: Table 4; letter codes for IC50
T1 construct: NS2B1423-1470); purchased R&D 2907-SE-020
Description: WNV protease inhibition assay

[2] = Zika virus, Vero, read-out: ZIKA Cell_Nanoluc, Vero cells with stable ZIKV replicon, 72 h, Nano-Glo readout
[3] = Zika virus, Vero, read-out: ZIKA Cell_Nanoluc
[4] = read-out: ZIKA Cell_Nanoluc, Vero cells with stable ZIKV replicon, Nano-Glo readout

T1 sequence (Q9Q6P4 1423-1470): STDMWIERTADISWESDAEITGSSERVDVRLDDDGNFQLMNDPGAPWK
T1 sequence (Q9Q6P4 1506-1689): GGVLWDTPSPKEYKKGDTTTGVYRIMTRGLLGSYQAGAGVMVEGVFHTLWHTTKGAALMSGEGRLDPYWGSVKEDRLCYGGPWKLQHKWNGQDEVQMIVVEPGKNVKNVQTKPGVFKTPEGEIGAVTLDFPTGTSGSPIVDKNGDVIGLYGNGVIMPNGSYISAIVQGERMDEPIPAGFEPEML

Work on Cc1cnn(C)c1-c1ccc(C[n+]2cc([N-]C(=O)Nc3ccc(C#N)c(C(F)(F)F)c3)on2)cc1 [Example 238, ((4-Cyano-3-(trifluoromethyl)phenyl)-carbamoyl)(3-(4-(1,4-dimethyl-1H-pyrazol-5-yl)benzyl)-1,2,3-oxadiazol-3-ium-5-yl)amide] yielded an EC50 (ZIKV replicon; [2]) of 1000 to 20000 nM and an IC50 [1] of 100 to 1000 nM.

Cc1cnn(C2COC2)c1-c1ccc(C[n+]2cc([N-]C(=O)Nc3ccnc(C(F)(F)F)c3)on2)cc1 [Example 239, (3-((4-(4-Methyl-2-(oxetan-3-yl)pyrazol-3-yl]phenyl)methyl)oxadiazol-3-ium-5-yl)-((2-(trifluoromethyl)pyridin-4-yl)carbamoyl)-azanide] showed an EC50 (ZIKV replicon; [3]) of under 100 nM and an IC50 [1] of under 100 nM.

Cc1ccccc1CC(=O)Nc1cc(NC(=O)[N-]c2c[n+]([C@H]3CCCC[C@H]3O)no2)cc(C(F)(F)F)c1 [Example 240, (3-((1S,2R)-2-Hydroxycyclohexyl)-1,2,3-oxadiazol-3-ium-5-yl)((3-(2-(o-tolyl)acetamido)-5-(trifluoromethyl)phenyl)carbamoyl)amide] was tested, and the EC50 (ZIKV replicon; [2]) was 1000 to 20000 nM and the IC50 [1] was 100 to 1000 nM.

Work on Cc1ncncc1[C@H]1CC[C@H](C[n+]2cc([N-]C(=O)Nc3ccnc(C(F)(F)F)c3)on2)CC1 [Example 241, (3-(((1R,4S)-4-(4-Methylpyrimidin-5-yl)cyclohexyl)methyl)-1,2,3-oxadiazol-3-ium-5-yl)((2-(trifluoromethyl)pyridin-4-yl)carbamoyl)-amide] yielded an EC50 (ZIKV replicon; [3]) of 100 to 1000 nM and an IC50 [1] of under 100 nM.

Work on Cc1ccccc1CC(=O)Nc1cc(NC(=O)[N-]c2c[n+]([C@H]3CC[C@H](C(=O)N(C)C)CC3)no2)cc(C(F)(F)F)c1 [Example 248, (3-((1R,4R)-4-(Dimethylcarbamoyl)-cyclohexyl)-1,2,3-oxadiazol-3-ium-5-yl)((3-(2-(o-tolyl)acetamido)-5-(trifluoromethyl)phenyl)-carbamoyl)amide] yielded an EC50 (ZIKV replicon; [3]) of 1000 to 20000 nM and an IC50 [1] of under 100 nM.

In the case of COc1ccc(NC(=O)[N-]c2c[n+](Cc3ccc(-c4c(C)ncnc4C)cc3)no2)cc1C(F)(F)F [Example 249, (3-(4-(4,6-Dimethylpyrimidin-5-yl)benzyl)-1,2,3-oxadiazol-3-ium-5-yl)((4-methoxy-3-(trifluoromethyl)phenyl)carbamoyl)amide], the EC50 (ZIKV replicon; [2]) is reported as under 100 nM and the IC50 [1] is reported as 100 to 1000 nM.

For Cc1cn(C2COC2)nc1-c1ccc(C[n+]2cc([N-]C(=O)Nc3ccnc(C(F)(F)F)c3)on2)cc1 [Example 250, (3-(4-(4-Methyl-1-(oxetan-3-yl)-1H-pyrazol-3-yl)benzyl)-1,2,3-oxadiazol-3-ium-5-yl)((2-(trifluoromethyl)pyridin-4-yl)carbamoyl)amide], the EC50 (ZIKV replicon; [2]) was 100 to 1000 nM and the IC50 [1] was 100 to 1000 nM.

CNC(=O)[C@H]1CC[C@H]([n+]2cc([N-]C(=O)Nc3cc(NC(=O)Cc4ccccc4C)cc(C(F)(F)F)c3)on2)CC1 [Example 251, rac-(3-((1R,4R)-4-(Methylcarbamoyl)-cyclohexyl)-1,2,3-oxadiazol-3-ium-5-yl)((3-(2-(o-tolyl)acetamido)-5-(trifluoromethyl)phenyl)-carbamoyl)amide] gave an EC50 (ZIKV replicon; [3]) of 1000 to 20000 nM and an IC50 [1] of 100 to 1000 nM.

In the case of Cc1ccccc1CC(=O)Nc1cc(NC(=O)[N-]c2c[n+]([C@H]3CC[C@H](C(=O)N4CCCC4)CC3)no2)cc(C(F)(F)F)c1 [Example 254, (3-((1R,4R)-4-(Pyrrolidine-1-carbonyl)-cyclohexyl)-1,2,3-oxadiazol-3-ium-5-yl)((3-(2-(o-tolyl)acetamido)-5-(trifluoromethyl)phenyl)-carbamoyl)amide], the EC50 (ZIKV replicon; [3]) is reported as 1000 to 20000 nM and the IC50 [1] is reported as under 100 nM.

In the case of Cc1ccccc1CC(=O)Nc1cc(NC(=O)[N-]c2c[n+]([C@@H]3CCC[C@H](C(N)=O)C3)no2)cc(C(F)(F)F)c1 [Example 255, (3-((1R,3S)-3-Carbamoylcyclohexyl)-1,2,3-oxadiazol-3-ium-5-yl)((3-(2-(o-tolyl)acetamido)-5-(trifluoromethyl)phenyl)carbamoyl)amide], the EC50 (ZIKV replicon; [2]) is reported as 1000 to 20000 nM and the IC50 [1] is reported as 100 to 1000 nM.

Work on Cc1ccccc1CC(=O)Nc1cc(NC(=O)[N-]c2c[n+]([C@H]3CC[C@H](N(C)C)CC3)no2)cc(C(F)(F)F)c1 [Example 257, (3-((1R,4R)-4-(Dimethylamino)cyclohexyl)-1,2,3-oxadiazol-3-ium-5-yl)((3-(2-(o-tolyl)-acetamido)-5-(trifluoromethyl)phenyl)-carbamoyl)amide] yielded an EC50 (ZIKV replicon; [3]) of 1000 to 20000 nM and an IC50 [1] of under 100 nM.

Cc1ncccc1-c1ccc(C[n+]2cc([N-]C(=O)Nc3ccnc(C(F)(F)F)c3)on2)cc1 [Example 258, (3-(4-(2-Methylpyridin-3-yl)benzyl)-1,2,3-oxadiazol-3-ium-5-yl)((2-(trifluoromethyl)pyridin-4-yl)carbamoyl)amide] gave an EC50 (ZIKV replicon; [2]) of under 100 nM and an IC50 [1] of under 100 nM.

Cc1nc(-c2ccc(C[n+]3cc([N-]C(=O)Nc4ccnc(C(F)(F)F)c4)on3)cc2)c(C)s1 [Example 259, (3-(4-(2,5-Dimethylthiazol-4-yl)benzyl)-1,2,3-oxadiazol-3-ium-5-yl)((2-(trifluoromethyl)pyridin-4-yl)carbamoyl)amide] showed an EC50 (ZIKV replicon; [2]) of under 100 nM and an IC50 [1] of 100 to 1000 nM.

Work on Cc1nc(N)ncc1-c1ccc(C[n+]2cc([N-]C(=O)Nc3ccnc(C(F)(F)F)c3)on2)cc1 [Example 260, (3-(4-(2-Amino-4-methylpyrimidin-5-yl)benzyl)-1,2,3-oxadiazol-3-ium-5-yl)((2-(trifluoromethyl)pyridin-4-yl)carbamoyl)amide] yielded an EC50 (ZIKV replicon; [2]) of under 100 nM and an IC50 [1] of under 100 nM.

Cc1ncnc(C)c1-c1ccc(C[n+]2cc([N-]C(=O)Nc3ccc(O)c(C(F)(F)F)c3)on2)cc1 [Example 261, (3-(4-(4,6-Dimethylpyrimidin-5-yl)benzyl)-1,2,3-oxadiazol-3-ium-5-yl)((4-hydroxy-3-(trifluoromethyl)phenyl)carbamoyl)amide] showed an EC50 (ZIKV replicon; [2]) of under 100 nM and an IC50 [1] of under 100 nM.

For COC(=O)c1ccc(NC(=O)[N-]c2c[n+](Cc3ccc(-c4c(C)ncnc4C)cc3)no2)cc1C(F)(F)F [Example 262, (3-(4-(4,6-Dimethylpyrimidin-5-yl)benzyl)-1,2,3-oxadiazol-3-ium-5-yl)((4-(methoxy-carbonyl)-3-(trifluoromethyl)phenyl)carbamoyl) amide], the EC50 (ZIKV replicon; [2]) was 100 to 1000 nM and the IC50 [1] was 100 to 1000 nM.

In the case of Cc1ccnc(C)c1-c1ccc(C[n+]2cc([N-]C(=O)Nc3ccnc(C(F)(F)F)c3)on2)cc1 [Example 263, (3-(4-(2,4-Dimethylpyridin-3-yl)benzyl)-1,2,3-oxadiazol-3-ium-5-yl)((2-(trifluoromethyl)pyridin-4-yl)carbamoyl)amide], the EC50 (ZIKV replicon; [2]) is reported as under 100 nM and the IC50 [1] is reported as under 100 nM.

In the case of CC(=O)Nc1ccc(NC(=O)[N-]c2c[n+](Cc3ccc(-c4c(C)ncnc4C)cc3)no2)cc1C(F)(F)F [Example 264, ((4-Acetamido-3-(trifluoromethyl)phenyl)-carbamoyl)(3-(4-(4,6-dimethylpyrimidin-5-yl)benzyl)-1,2,3-oxadiazol-3-ium-5-yl)amide], the EC50 (ZIKV replicon; [2]) is reported as under 100 nM and the IC50 [1] is reported as under 100 nM.

In the case of Cc1ccccc1CC(=O)Nc1cc(NC(=O)[N-]c2c[n+](C3CCCC(CO)C3)no2)cc(C(F)(F)F)c1 (stereo not shown) [Example 265, (3-(3-(Hydroxymethyl)cyclohexyl)-1,2,3-oxadiazol-3-ium-5-yl)((3-(2-(o-tolyl)acetamido)-5-(trifluoromethyl)phenyl)carbamoyl)amide], the EC50 (ZIKV replicon; [2]) is reported as 1000 to 20000 nM and the IC50 [1] is reported as 100 to 1000 nM.

O=C([N-]c1c[n+](Cc2ccc(-c3cncnc3)cc2)no1)Nc1ccnc(C(F)(F)F)c1 [Example 266, (3-(4-(Pyrimidin-5-yl)benzyl)-1,2,3-oxadiazol-3-ium-5-yl)((2-(trifluoromethyl)pyridin-4-yl)carbamoyl)amide] gave an EC50 (ZIKV replicon; [4]) of under 100 nM and an IC50 [1] of under 100 nM.

In the case of Cc1ccccc1CC(=O)Nc1cc(NC(=O)[N-]c2c[n+]([C@@H]3CCC[C@@H](C(N)=O)C3)no2)cc(C(F)(F)F)c1 [Example 267, (3-((1R,3R)-3-Carbamoylcyclohexyl)-1,2,3-oxadiazol-3-ium-5-yl)((3-(2-(o-tolyl)acetamido)-5-(trifluoromethyl)phenyl)carbamoyl)amide], the EC50 (ZIKV replicon; [4]) is reported as 1000 to 20000 nM and the IC50 [1] is reported as 100 to 1000 nM.

Work on Cc1nn(C)c(C)c1-c1ccc(C[n+]2cc([N-]C(=O)Nc3ccnc(C(F)(F)F)c3)on2)cc1 [Example 268, ((2-(Trifluoromethyl)pyridin-4-yl)carbamoyl)(3-(4-(1,3,5-trimethyl-1H-pyrazol-4-yl)benzyl)-1,2,3-oxadiazol-3-ium-5-yl)amide] yielded an EC50 (ZIKV replicon; [2]) of under 100 nM and an IC50 [1] of under 100 nM.

In the case of Cc1ncnc(C)c1-c1ccc(C[n+]2cc([N-]C(=O)Nc3cc(C(F)(F)F)c4ncccc4c3)on2)cc1 [Example 272, (3-(4-(4,6-Dimethylpyrimidin-5-yl)benzyl)-1,2,3-oxadiazol-3-ium-5-yl)((8-(trifluoromethyl)-quinolin-6-yl)carbamoyl)amide], the EC50 (ZIKV replicon; [2]) is reported as 100 to 1000 nM and the IC50 [1] is reported as 1000 to 20000 nM.

With CNC(=O)c1ccc(NC(=O)[N-]c2c[n+](Cc3ccc(-c4c(C)ncnc4C)cc3)no2)cc1C(F)(F)F [Example 273, (3-(4-(4,6-Dimethylpyrimidin-5-yl)benzyl)-1,2,3-oxadiazol-3-ium-5-yl)((4-(methyl-carbamoyl)-3-(trifluoromethyl)phenyl)carbamoyl)amide] the EC50 (ZIKV replicon; [2]) was 1000 to 20000 nM and the IC50 [1] was 100 to 1000 nM.

“(3-((1R,4R)-4-((Dimethylamino)methyl)-cyclohexyl)-1,2,3-oxadiazol-3-ium-5-yl)((3-(2-(3- methoxyphenyl)acetamido)-5-(trifluoromethyl)- phenyl)carbamoyl)amide [Example 152]” gave an EC50 (ZIKV replicon; [4]) of 1000 to 20000 nM and an IC50 [1] of 100 to 1000 nM.

With “((3-(2-(3-(Carboxymethyl)phenyl)acetamido)-5-(trifluoromethyl)phenyl)carbamoyl)(3-((1R,4R)-4-((dimethylamino)methyl)cyclohexyl)-1,2,3-oxadiazol-3-ium-5-yl)amide [Example 155]” the EC50 (ZIKV replicon; [4]) was 1000 to 20000 nM and the IC50 [1] was 100 to 1000 nM.
